Source: paper PMC11747885, “Potent inhibitors of the human RNA ligase Rlig1 highlights its role in RNA integrity maintenance under oxidative cellular stress” (Chemical Science, 2025)

Target: T1, Rlig1-AMP (Homo sapiens, UniProt Q8N999)
T1 construct: made in house; host or cells: E. coli BL21 (DE3), pET15b-Rlig1
Test: FRET-based high-throughput screening of inhibitors for Rlig1-AMP
Type: biochemical
Conditions: for Raw data [w Enyzm]: with enzyme; for Raw data [w/o Enzym]: without enzyme

[1] = sheet HTS hits, MedChemExpress library
[2] = sheet HTS hits, difference of raw data w/o and w enzyme
[3] = HTS hits, MedChemExpress library
[4] = HTS hits, difference of raw data without and with enzyme
[5] = HTS hits, difference of raw data w/o and w enzyme
[6] = HTS hits, normalised value of 1-D Distance

T1 sequence (Q8N999 whole entry): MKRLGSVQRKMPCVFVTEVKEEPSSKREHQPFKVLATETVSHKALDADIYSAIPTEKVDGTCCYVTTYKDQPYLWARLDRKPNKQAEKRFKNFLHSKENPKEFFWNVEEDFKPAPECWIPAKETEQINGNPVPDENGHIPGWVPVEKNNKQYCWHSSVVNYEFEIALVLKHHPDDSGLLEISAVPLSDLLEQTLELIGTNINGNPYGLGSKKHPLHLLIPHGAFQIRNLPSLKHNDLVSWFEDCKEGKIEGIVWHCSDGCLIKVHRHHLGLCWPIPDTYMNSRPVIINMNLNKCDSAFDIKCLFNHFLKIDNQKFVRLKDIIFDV

Structure (SMILES)	1-D Distance.npi [1]	1-D Distance [2]	Raw data [w Enyzm] (sheet HTS hits)	Raw data [w/o Enzym] (sheet HTS hits)	1-D Distance.npi [3]	1-D Distance [4]	Raw data [w Enyzm] (HTS hits)	Raw data [w/o Enzym] (HTS hits)	1-D Distance [5]	1-D Distance.npi [6]
C/C1=C2/[N-][C@H]([C@H](CC(N)=O)[C@@]2(C)CCC(=O)NC[C@H](C)OP(=O)([O-])O[C@H]2[C@@H](O)[C@@H](n3cnc4cc(C)c(C)cc43)O[C@@H]2CO)[C@]2(C)N=C(/C(C)=C3N=C(/C=C4N=C1[C@@H](CCC(N)=O)C\4(C)C)[C@@H](CCC(N)=O)[C@]\3(C)CC(N)=O)[C@@H](CCC(N)=O)[C@]2(C)CC(N)=O.[CH3-].[Co+3] [Methylcobalamin]	89.4559	977	4140	5117						
CN(C)c1ccc2nc3ccc(=[N+](C)C)cc-3sc2c1.O.O.O.[Cl-] [Methylene blue (trihydrate)]					83.8926	1051	6070			
O=C(NCCCCCCCCCC[P+](c1ccccc1)(c1ccccc1)c1ccccc1)c1nn(Cc2ccc(Cl)cc2Cl)c2ccccc12.[Br-] [Mito-LND]					74.0964	1734	5993	4259		
COc1cc(/C=C/C(=O)NCC(O)c2ccc(O)cc2)ccc1O (stereo not drawn) [N-Feruloyloctopamine]	70.0499	1918	9094	11012						
CCCCCOc1ccccc1/C(=C\SC)n1ccnc1.Cl [Neticonazole (hydrochloride)]					74.1423	1715	9255	10970		
Cl.Cl.Cn1cc(NC(=O)c2cc(NC(=O)CN=C(N)N)cn2C)cc1C(=O)NCCC(=N)N [Netropsin (dihydrochloride)]							8749		1774	75.4127
CCCCCCCCN=c1ccn(CCCCCCCCCCn2ccc(=NCCCCCCCC)cc2)cc1.Cl.Cl [Octenidine (dihydrochloride)]							8818	7318	1500	76.2265
COS(=O)(=O)[O-].C[n+]1c2ccccc2nc2ccccc21 [Phenazine (methylsulfate)]					78.9166	1419	2478	3897		
NCCNc1ccc(NCCN)c2c1C(=O)c1ccncc1C2=O.O=C(O)/C=C\C(=O)O.O=C(O)/C=C\C(=O)O [Pixantrone (dimaleate)]					84.4919	1138	4061	5199		

More lines, now with the values ahead:

1-D Distance.npi [1]	1-D Distance [2]	Raw data [w Enyzm] (sheet HTS hits)	Raw data [w/o Enzym] (sheet HTS hits)	1-D Distance.npi [3]	1-D Distance [4]	Raw data [w Enyzm] (HTS hits)	Raw data [w/o Enzym] (HTS hits)	1-D Distance [5]	1-D Distance.npi [6]	Structure (SMILES)
				104.362	176	8286	8462			Cl.NC(CO)(CO)CCc1ccc(Sc2cccc(OCc3ccccc3)c2)cc1Cl [Mocravimod (hydrochloride)]
						7973	8455	482	97.3447	NC[C@@H]1O[C@H](O[C@H]2[C@@H](O)[C@H](O[C@@H]3[C@@H](O)[C@H](N)C[C@H](N)[C@H]3O[C@H]3O[C@H](CN)[C@@H](O)[C@H](O)[C@H]3N)O[C@@H]2CO)[C@H](N)[C@@H](O)[C@@H]1O.O=S(=O)(O)O [Neomycin (sulfate)]
						7893		1863		CC1CS(=O)(=O)CCN1/N=C/c1ccc([N+](=O)[O-])o1 (stereo not drawn) [Nifurtimox]
						4805	6468	1663		Cl[TeH]1(Cl)(Cl)OCCO1 [Ossirene]
						8444	9664	1220	82.0351	NC[C@@H]1O[C@H](O[C@H]2[C@@H](O)[C@H](O[C@@H]3[C@@H](O)[C@H](N)C[C@H](N)[C@H]3O[C@H]3O[C@H](CO)[C@@H](O)[C@H](O)[C@H]3N)O[C@@H]2CO)[C@H](N)[C@@H](O)[C@@H]1O.O=S(=O)(O)O [Paromomycin (sulfate)]
					1702	9369	11071			c1cnc(N2CCN(Cc3ccc4c(c3)OCO4)CC2)nc1 [Piribedil]
